In ChEMBL document CHEMBL1154516, “Highly efficacious factor Xa inhibitors containing alpha-substituted phenylcycloalkyl P4 moieties” (Bioorg Med Chem Lett, 2009):

Experiments:
in vivo [1] = details: dog, iv, 0.5 mg/kg
in vivo [2] = details: dog, iv, 0.5 mg/kg; remark: listed apart in the source
in vivo [3] = details: dog, po, 0.2 mg/kg
in vitro [4] = details: human, liver microsomes
in vivo [5] = details: dog, po, 0.2 mg/kg; remark: listed apart in the source
in vitro [6] = details: dog, liver microsomes
physchem = details: octanol/water
Canis familiaris = species on record: Canis familiaris; details: dog, in vivo, po, 0.2 mg/kg

Vd (in vivo [1])	clearance (in vivo [2])	bioavailability (in vivo [3])	half-life (in vitro [4])	half-life (in vivo [5])	half-life (in vitro [6])	logP (physchem)	t1/2 (Canis familiaris)	Compound
7.1 L/kg	28.3 mL/min/kg	6%	> 3.33 h	4 h	1 h	–	–	COc1ccc(-n2nc(C(N)=O)c3c2C(=O)N(c2ccc(C4(CN5CCCC5)CC4)cc2)CC3)cc1.O=C(O)C(F)(F)F
4.4 L/kg	30 mL/min/kg	15%	2.43 h	1.6 h	0.6 h	–	–	CNC1(c2ccc(N3CCc4c(C(N)=O)nn(-c5ccc(OC)cc5)c4C3=O)cc2)CC1.O=C(O)C(F)(F)F
0.65 L/kg	8.17 mL/min/kg	27%	1.62 h	1.9 h	1.65 h	–	–	COc1ccc(-n2nc(C(N)=O)c3c2C(=O)N(c2ccc(C4(CC(N)=O)CC4)cc2)CC3)cc1.O=C(O)C(F)(F)F
4.1 L/kg	20 mL/min/kg	67%	0.783 h	4.3 h	3 h	–	–	COc1ccc(-n2nc(C(N)=O)c3c2C(=O)N(c2ccc(C4(N(C)CCO)CC4)cc2)CC3)cc1.O=C(O)C(F)(F)F
0.2 L/kg	4.17 mL/min/kg	3.1%	0.167 h	0.99 h	0.183 h	–	–	COc1ccc(-n2nc(C(N)=O)c3c2C(=O)N(c2ccc(C4(CN5CCCC5=O)CC4)cc2)CC3)cc1.O=C(O)C(F)(F)F
11.7 L/kg	22.8 mL/min/kg	41%	2.97 h	6.4 h	1.22 h	2.5	–	COc1ccc(-n2nc(C#N)c3c2C(=O)N(c2ccc(C4(CN(C)C)CC4)cc2)CC3)cc1.O=C(O)C(F)(F)F

Continued, compound first:

Compound	Vd (in vivo [1])	clearance (in vivo [2])	bioavailability (in vivo [3])	half-life (in vitro [4])	half-life (in vivo [5])	half-life (in vitro [6])	logP (physchem)	t1/2 (Canis familiaris)
COc1ccc(-n2nc(S(C)(=O)=O)c3c2C(=O)N(c2ccc(C4(Cn5ccnc5C)CC4)cc2)CC3)cc1.O=C(O)C(F)(F)F	4 L/kg	70 mL/min/kg	0.2%	0.0833 h	–	–	–	–
COc1ccc(N2N=C(S(C)(=O)=O)C3CCN(c4ccc(C5(CN6CCCC6)CC5)cc4)C(=O)C32)cc1.O=C(O)C(F)(F)F (centres undefined)	7.7 L/kg	55 mL/min/kg	100%	0.617 h	2.3 h	–	–	–
COc1ccc(-n2nc(C(N)=O)c3c2C(=O)N(c2ccc(C4(CN5CCOCC5)CC4)cc2)CC3)cc1	–	–	–	–	–	–	3.3	–
COc1ccc(-n2nc(C#N)c3c2C(=O)N(c2ccc(C4(CN5CCOCC5)CC4)cc2)CC3)cc1	–	–	–	–	–	–	4	–
CNCC1(c2ccc(N3CCc4c(C(F)(F)F)nn(-c5ccc(OC)cc5)c4C3=O)cc2)CC1	–	–	–	–	–	–	3.2	–
COc1ccc(-n2nc(C(F)(F)F)c3c2C(=O)N(c2ccc(C4(CN5CCCC5)CC4)cc2)CC3)cc1	–	–	–	–	–	–	3.4	–
COc1ccc(-n2nc(C(F)(F)F)c3c2C(=O)N(c2ccc(C4(CN(C)C)CC4)cc2)CC3)cc1	–	–	–	–	–	–	3.4	–
COc1ccc(-n2nc(S(C)(=O)=O)c3c2C(=O)N(c2ccc(C4(CN5CCOCC5)CC4)cc2)CC3)cc1.O=C(O)C(F)(F)F	1.9 L/kg	13.3 mL/min/kg	61%	0.417 h	4 h	–	–	–
COc1ccc(-n2nc(C(N)=O)c3c2C(=O)N(c2ccc(N4CCCCC4=O)cc2)CC3)cc1 [APIXABAN]	0.2 L/kg	0.333 mL/min/kg	–	–	–	–	–	–
CN(C)Cc1nccn1-c1ccc(NC(=O)c2cc(C(F)(F)F)nn2-c2ccc3onc(N)c3c2)c(F)c1 [RAZAXABAN]	–	–	–	–	–	–	–	3.4 h
